Assay results from patent US9175055B2, “Use of fibromodulin and lumican for increasing muscle mass” (ASSOCIATION FRANCAISE CONTRE LES MYOPATHIES, priority 2011, dated 2015).
Several values for one entry are separate records, joined by “and”; a condition that tells them apart may be missing. Identical values can stand only once.

How the values were obtained:
mature myostatin = target: T1, mature myostatin (Mus musculus, UniProt O08689); experiment: ELISA-type test of direct interaction of biotinylated fibromodulin peptides with coated myostatin; type: binding; settings: FIG. 3
T1 sequence (O08689 268-376): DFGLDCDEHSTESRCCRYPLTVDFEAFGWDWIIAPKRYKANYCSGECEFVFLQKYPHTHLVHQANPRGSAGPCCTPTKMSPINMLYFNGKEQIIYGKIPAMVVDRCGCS
Excerpt: The ELISA test (Enzyme Linked ImmunoSorbent Assay) is a test for detecting and/or assaying a protein present in a biological fluid. In the technique known as “sandwich” assay, the wells of a microtiter plate are covered with a capture antibody capable of binding specifically to the desired antigen. During this operation called “coating”, the capture antibody binds to the plastic of the wells by electrostatic interaction. The capture antibody ensures the specificity of the test. The solution to be tested is then deposited into the wells of the microtiter plate and, if the desired antigen is present, it will bind specifically to the capture antibody. A second antibody, the tracer antibody, capable of binding to the captured antigen is then added to the wells, and the unbound tracer antibodies are eliminated by rinsing. The tracer antibody is coupled to an enzyme catalyzing the formation of a colored product.
The principle of this technique was used to study the direct interaction of the mature myostatin with the peptides 69-101 Fmod Biotin and 69-101 Fmod Biotin mutated (see sequences below). For this, 3 μl of myostatin at a concentration of 100 ng/μl are taken up in 50 μl of carbonate buffer and added to each well of the assay plate (R&D Systems DY990). After an overnight incubation at 4° C., the plate is washed with 100 μl of PBS-Tween (0.05% Tween 20), then the blocking step to saturate non-specific sites is carried out for 2 hours at room temperature with 100 μl of PBS and 6% of milk per well. Five successive washes with 200 μl of PBS-Tween (0.05% Tween 20) are performed and increasing amounts of biotinylated fibromodulin peptides are then deposited (100 μl final in PBS) and the plate is incubated for 1 hour at 37° C. For the positive control, an antibody of goat anti-myostatin (≠AF788, R&D Systems), which was deposited in the control wells and incubated for 1 hour at 1/100th (0.1 mg/ml) was […]. The wells were then washed 5 times with PBS-Tween (0.05% Tween 20). To detect binding of the biotinylated peptides to MSTN, streptavidin-HRP (≠N100, Pierce) was used at 1/20,000th. was added to the wells. For the controls points with the goat anti-myostatin antibody, an HRP-marked (≠ab6885, Abcam) polyclonal secondary donkey anti-goat antibody was added (at 1/4000th)). After five washes, adding the peroxidase substrate, the TMB Substrate Reagent Set (Tetramehylbenzidine, OptEIA, ≠555214) allows the obtention of a colored reaction proportional to the quantity of HRP present in the wells. The reaction is stopped after 20 minutes by addition of sulfuric acid 2N, and the plate is read at 450 nm on a Discovery HT-R spectrophotometer (Bio-TEK).
Buffer Composition: 0.1 M carbonate buffer: 4.2 g NaHCO3, 1.78 g of […] in 500 ml of H20 MilliQ, pH 9,5. Storage at 4° C.

mdx mice [1] = experiment: Comparative muscle hypertrophy 18 days after intramuscular injection of peptides in dystrophic mdx mice; type: in vivo; settings: for Hypertrophy %: 18 days after IM injection, average of five mdx mice, TAG versus TAD; for increase in muscular hypertrophy, factor compared to decorin: day 18, mdx mice
Experimental: (§1) Mdx mice (C57BL/10ScSn-DmD^max/J) from colonies maintained at Genethon. Mice aged at least six weeks were used. All experiments were performed in accordance with European ethical rules regarding the use of animals for experimental research.
(§2) Intramuscular injection is performed on animals anesthetized at the tibialis anterior muscle (TA). The injected volume was around 20-35 μl. The injection is performed in the middle of TA Left (TAG). An equal volume of NaCl 150 mM/15 μM ZnCl2 was systematically injected into the right anterior tibialis (TAD) to serve as a control. After a specified number of days after the injection, the TAD and TAG were taken after sacrificing the mice, which were weighed and frozen for histological studies.
(§3) The peptide fibromodulin (Fmod, SEQ ID NO: 2) and lumican (mLumican, SEQ ID NO: 5) were dissolved in water and stored at −80° C. For the injections, the preparation procedure is as follows: 24-40 hours before the injection, the desired quantity of peptide is removed from the stock solution and mixed with a solution of zinc chloride (ZnCl2) and 150 mM NaCl so as to have a final concentration of 15 μM of zinc. The peptide was stored at 4° C. until injection.
4/In vivo Comparative Study of Muscle Hypertrophy 18 Days after Injection of Dystrophic mdx Mice with Decorin Peptide (MdCN 31-71, SEQ ID NO: 75), Fibromodulin (mFmod 69-101) or lumican (mLum 30-62):
The TAD and TAG muscles were removed 18 days after injection of the peptides, and then weighed. The experiment was performed on five separate mice.

mdx mice [2] = experiment: Muscle weight on D20 after intramuscular injection into Tibialis Anterior of mdx mice; type: in vivo; settings: D20, individual mdx mice
Experimental: as §1, §2
as §3, with “injection. […]” for “injection.”
On D20, the mice were sacrificed and the weight of the TAG and TAD muscles was measured.

[3] = target: T2, recombinant murine myostatin (Mus musculus, UniProt O08689); experiment: Inhibition of myostatin activity, pGL3-(CAGA)12-Luc reporter in HEK293T cells; type: cell-based; settings: 2.5 nM myostatin, FIG. 1 and 2
T2 sequence (O08689 268-376): T1 sequence (O08689 268-376)
Excerpt: The plasmidic construction pGL3-(CAGA)12-firefly luciferase (notated pGL3-(CAGA)12-Luc) obtained by MTA of the Pr. Carl-Henrik Heldin (Ludwig Institute for Cancer Research, Sweden) contains 12 CAGA copies of the consensus SBE (Smad Binding Element) consensus sequence and allows to indirectly measure the binding of myostatin to its receptor. Indeed, when myostatin binds to the receptor Activin IIb, the Smad 3 and 4 proteins are activated and will bind to the 12 CAGA copies. The promoter of the cassette pGL3-(CAGA)12-Luc is thus activated, which results in luciferase production. The myostatin/Activin IIb binding can be followed, therefore, by measuring the luciferase.
The ability of the peptides to inhibit the in vitro activity of the myostatin has been evaluated on embryonic human kidney cells 293T by means of the pGL3-(CAGA)12-Luc construction. For this, 350,000 293T cells were placed per well in a 24-well plate. After 24 hours of culture, the cells were transfected with a mixture of 8 μl de PEI (PEI 25 kDa; Sigma) and 2 μg of plasmide pGL3-(CAGA)12-Luc/well. […] Twenty-four hours after transfection, 2.5 nM of recombinant murine myostatin, mixed or not mixed with various quantities of fibromodulin or lumican peptides were added to each well. […] Twenty-four hours after incubation, the cells were lysed, then collected to be assayed for luciferase activity and the quantity of protein.

Row | Substance | interaction with myostatin (absorbence at 450 nm) (mature myostatin; in the presence of zinc) | Hypertrophy % (mdx mice [1]) | increase in muscular hypertrophy, factor compared to decorin (mdx mice [1]) | induction of the pCAGA-Luc promoter (inhibition of myostatin activity) [3] | also measured
1 | Biotine-PPPEPRDCPQEADAPPNFPTAMYADNRNLKYLP- CONH2 [mutated biotin mFmod peptide] | no interaction is visible |  |  |  | 
2 | Biotine-PPPEPRDCPQECDCPPNFPTAMYCDNRNLKYLP-CONH2 [biotinylated mFmod 69-101] | direct interaction takes place |  |  |  | 
3 | PPPEPRDCPQECDCPPNFPTAMYCDNRNLKYLP (69-101 mouse fibromodulin Fmod) [mFmod 69-101, fragment corresponding to residues 69-101 of murine fibromodulin] |  | 29.34 ± 15.76% | 2.9 | net inhibition of the promoter in a dose-dependent manner | interaction with myostatin (absorbence at 450 nm) (mature myostatin; in the absence of zinc): no interaction is seen; amount of peptide from which a plateau of absorbence is obtained (mature myostatin; in the presence of zinc): ≥ 4.2 µg; Weight of injected muscle (TAG) (mdx mice [2]; 50 μg peptide + 15 μM ZnCl2 IM in left Tibialis Anterior): 66.5 mg and 75.4 mg and 74.6 mg and 65.2 mg and 73.9 mg; Growth (TAG versus control TAD) (mdx mice [2]; 50 μg peptide + 15 μM ZnCl2 IM): 22.24% and 5.31% and 19.94% and 5.33% and 12.31%
4 | YGQISPNCAPECNCPHSYPTAMYCDDLKLKSVP (30-62 mouse lumican) [mLum 30-62, fragment corresponding to residues 30 to 62 of murin lumican] |  | 37.26 ± 14.69% | 3.7 | net inhibition of the promoter in a dose-dependent manner | 
5 | mDCN 31-71: Decorin Peptide (MdCN 31-71, SEQ ID NO: 75), comparator from prior art WO 2010/106295 (DEASGIIPYDPDNPLISMCPYRCQCHLRVVQCSDLGLDKVP; 31-71 mouse decorin fragment) [reference compound] |  | 10.02 ± 8.3% |  |  | 
